Several values for one entry are separate records, joined by “and”; a condition that tells them apart may be missing. Identical values can stand only once.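 Five concentrations, 48 hours, 96-well plates. The concentration for 50% growth inhibition is given as GI50. Definition used: TGI = concentration required for complete inhibition of growth.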
Key:
Assay in all cases: NCI tumour cell line growth inhibition, 48 h
[1] = tested on: SK-MEL-28 melanoma
[2] = tested on: K-562 leukemia
[3] = tested on: NCI-H522 lung
[4] = tested on: HL-60(TB) leukemia
[5] = tested on: HCT-116 colon
[6] = tested on: NCI-H460 lung
[7] = tested on: TK-10 renal
[8] = tested on: SF-295 CNS
[9] = tested on: A498 renal
[10] = tested on: NCI/ADR-RES ovarian

Structure (SMILES)	TGI [1]	TGI [2]	TGI [3]	TGI [4]	TGI [5]	TGI [6]	TGI [7]	TGI [8]	GI50 [9]	TGI [9]	GI50 [1]	GI50 [2]	GI50 [3]	GI50 [5]	GI50 [6]	GI50 [7]	GI50 [10]	TGI [10]	GI50 [8]	GI50 [4]
COC1(OC)CCC2(C)OC(c3ccccc3)C1O2 (centres undefined)	> 100 µM	> 100 µM	> 100 µM	> 100 µM	> 100 µM	> 100 µM	> 100 µM	> 100 µM												
CN(C)C/C=C/C(=O)Nc1ccc(C(=O)Nc2cccc(Nc3ncc(Cl)c(-c4c[nH]c5ccccc45)n3)c2)cc1	0.532 µM	> 100 µM	0.094 µM			0.904 µM	1.34 µM	0.475 µM	0.0189 µM	0.119 µM	0.0215 µM	< 0.0148 µM	0.0172 µM	< 0.0131 µM	0.265 µM	0.0602 µM	1.54 µM	> 100 µM	0.155 µM	
C=C1C2CCCC1C1(S(C)(=O)=O)CCCCC21O (centres undefined)	> 100 µM	> 100 µM	> 100 µM		> 100 µM	> 100 µM	> 100 µM	> 100 µM												
O=C(CC(=O)N1N=C(n2ccc3ccccc32)CC1c1ccccc1)Nc1ccccc1Cl (centres undefined)	> 100 µM	> 100 µM	> 100 µM	> 100 µM	> 100 µM	> 100 µM	> 100 µM	> 100 µM		> 100 µM										
CC1CN1c1c(C(=O)/C=C/c2ccc(F)cc2)c(-c2ccccc2)nn(C)c1=O (centres undefined)	32 µM			43 µM	27.3 µM	36.3 µM	31 µM	30.2 µM												
Cc1cc(NS(=O)(=O)c2ccc(NC(=O)c3cccc4c(Nc5ccc(S(=O)(=O)Nc6cc(C)on6)cc5)c5ccc(Cl)cc5nc34)cc2)no1	> 100 µM	> 100 µM	> 100 µM	> 100 µM	57.5 µM	> 100 µM	> 100 µM	> 100 µM		> 100 µM										
CS(=O)(=O)ON1C(=O)c2ccc(N)cc2C1=O	> 88.6 µM	> 100 µM	43.2 µM	46.5 µM	> 100 µM	> 100 µM	> 100 µM	> 100 µM		> 100 µM										
O=C1CCC2(c3ccccc3)OCC([C@@H](O)c3ccccc3)N12 (some centres undefined)	> 100 µM	> 100 µM			> 100 µM	> 100 µM	> 100 µM	> 100 µM		> 100 µM										
Cc1ccc2c(-c3ccnc(Nc4cccc(C(F)(F)F)c4)n3)c(-c3ccccc3)nn2n1	> 25 µM	> 25 µM	> 14.7 µM		> 12.2 µM	> 16.4 µM	11.4 µM	> 25 µM	5.72 µM	> 15.4 µM	> 15.4 µM	> 25 µM	5.73 µM	4.32 µM	6.42 µM	3.57 µM	8.47 µM	> 25 µM	> 13.4 µM	
Oc1c(Cl)cc(Cl)c(Cl)c1Cc1c(O)c(Cl)cc(Cl)c1Cl	15.9 µM		9.66 µM	7.96 µM	10.2 µM	12.5 µM	35.5 µM	2.05 µM	0.419 µM	7.12 µM	2.13 µM		0.521 µM	0.41 µM	0.534 µM	3.04 µM	0.453 µM	10.8 µM	0.34 µM	0.678 µM
CCCCNC(=O)CC1=C(C)/C(=C/c2[nH]c(-c3ccc[nH]3)cc2OC)N=C1C			4.89 µM	6.87 µM		11.7 µM	8.8 µM	3.48 µM	2.54 µM	7.43 µM			1.8 µM		2.71 µM	2.83 µM	3.02 µM	9.89 µM	1.6 µM	2.84 µM
COc1c(CC(C)=O)c2ccccc2n1C(C)=O	> 100 µM	> 100 µM		> 100 µM	> 100 µM	> 100 µM		> 100 µM		> 100 µM										
O=c1[nH]c(-c2ccccc2)nc2cc([N+](=O)[O-])c(/C(Cl)=C/c3ccccc3)cc12	> 100 µM	> 100 µM	81.7 µM		> 100 µM		76.6 µM	53.5 µM												
Cc1[nH]c2ccccc2c1/C=C/c1c(C)[nH]c2ccccc12	> 100 µM	> 100 µM		> 100 µM	> 100 µM	> 100 µM	> 100 µM	> 100 µM		> 100 µM										
CCN1C[C@@H](C)n2c(c(O)c3c(=O)n(Cc4ccc(F)c(Cl)c4)nc(C(=O)NC)c32)C1=O	7.17 µM	> 100 µM	9.47 µM		> 100 µM	10.7 µM	12.6 µM	> 100 µM	1.43 µM	4.55 µM	2.69 µM	3.39 µM	2.95 µM	3.21 µM	3.15 µM	2.95 µM	1.62 µM	7.79 µM	2.88 µM	
CCP(C)(=O)CC	> 100 µM	> 100 µM		> 100 µM	> 100 µM	> 100 µM	> 100 µM	> 100 µM												
N#CC(Cl)CS(=O)(=O)c1ccccc1 (centres undefined)	28 µM	4.85 µM	2.26 µM	> 100 µM	12.2 µM	38.8 µM	6.85 µM	36.3 µM		30.9 µM										
CC(C)(C)c1cc(Cc2ccc(S(C)(=O)=O)cc2)c(O)c(C(C)(C)C)c1	32 µM	31.6 µM	24.9 µM	42 µM	27 µM	30.5 µM	31.7 µM	25.8 µM		30.3 µM										
CC(=O)NNc1nc(C)c(C(=O)/C=C/c2ccc(N(C)C)cc2)s1	> 100 µM	> 100 µM	> 100 µM	> 100 µM		> 100 µM	> 100 µM	> 100 µM		> 100 µM										
CCN(CC)CCN1C(=O)c2c(c3c4cccc(Cl)c4n(C4OC(CO)C(OC)C(O)C4O)c3c3[nH]c4c(Cl)cccc4c23)C1=O (centres undefined)			0.21 µM and 0.146 µM										< 0.01 µM	< 0.0001 µM	< 0.0001 µM				0.000169 µM	0.309 µM and 0.0366 µM

Structure (SMILES)	TGI [1]	TGI [2]	TGI [3]	TGI [4]	TGI [5]	TGI [6]	TGI [7]	TGI [8]	GI50 [9]	TGI [9]	GI50 [1]	GI50 [2]	GI50 [3]	GI50 [5]	GI50 [6]	GI50 [7]	GI50 [10]	TGI [10]	GI50 [8]	GI50 [4]
CN(C)CC1CCCC/C1=N\OC(=O)c1ccccc1 (centres undefined)	> 100 µM	> 100 µM	> 100 µM	> 100 µM	> 100 µM	> 100 µM	> 100 µM	> 100 µM		> 100 µM										
COc1ccc(C(=O)C(c2ccc(OC)cc2)C2(O)C(=O)Nc3c(Cl)cc(Cl)cc32)cc1 (centres undefined)	44.4 µM	41.5 µM	35.2 µM	19.7 µM		49.9 µM	55 µM	39.9 µM												
Cc1c(C(=O)/C=C/c2ccc([N+](=O)[O-])cc2)[n+](=O)c2ccccc2n1[O-]	> 100 µM	> 100 µM	53.6 µM	2.89 µM	> 100 µM	> 100 µM	> 100 µM	> 100 µM		> 100 µM										
[CH3][Ge]([CH3])([CH2]CC#N)[S]c1ccccc1	65.1 µM	> 100 µM	11.1 µM	11.9 µM		29.8 µM	72.8 µM	41.5 µM			16.5 µM	8 µM	3.31 µM		16.3 µM	24.4 µM			16.5 µM	2.2 µM
O=C1NC(c2cccc3ccccc23)Nc2ccc(Cl)cc21 (centres undefined)	20.6 µM			0.000441 µM	12.1 µM	0.279 µM		0.0232 µM										0.0115 µM		
C/C(=C\CNc1ncnc2c1ncn2C1CCCCO1)COP(=O)(O)O (centres undefined)	> 100 µM	> 100 µM	> 100 µM	> 100 µM	> 100 µM	> 100 µM	> 100 µM	> 100 µM												
c1ccc(C2=Nc3ccccc3N3CNN=C23)cc1		> 100 µM	> 100 µM		> 100 µM	> 100 µM	> 100 µM	> 100 µM				90.1 µM	> 100 µM	> 100 µM	> 100 µM	79.4 µM	> 100 µM	> 100 µM	> 100 µM	
NNC(=O)N/N=C(/CC1(O)C(=O)Nc2ccc(Br)cc21)c1ccccc1 (centres undefined)	> 100 µM	69.1 µM	46.6 µM	51.7 µM	72.6 µM		> 100 µM	> 100 µM												
O=C1C=C(Nc2cc(Cl)ccc2Cl)c2ccccc2C1=O	> 100 µM	36.8 µM		40.9 µM	> 100 µM	88.9 µM		79.3 µM		52 µM										
CCCCCCCCCCCCCCCC(=O)OCC1OC(OCCCC)[C@H](O[C@@H]2OC(C)C(OC(=O)CCC)C(O)C2O)C(O)C1O (some centres undefined)	32.1 µM	31.6 µM	46.7 µM	32 µM	28.7 µM	57.8 µM	30.2 µM	28.2 µM			16.5 µM	16.8 µM	21.1 µM	15.4 µM	22.4 µM	15.6 µM	18 µM	32.3 µM	13.8 µM	14.5 µM
Nc1nc2c(ncn2C2OC(CO)C(O)C2O)c(=O)o1 (centres undefined)	> 100 µM	> 100 µM	> 100 µM	> 100 µM	> 100 µM	> 100 µM	> 100 µM	> 100 µM		> 100 µM										
O=C(Nc1ccc(Nc2ccc(NC(=O)c3ccccc3)c3c2C(=O)c2ccccc2C3=O)c2c1C(=O)c1ccccc1C2=O)c1ccccc1	> 100 µM	> 100 µM	> 100 µM	> 100 µM	> 100 µM	> 100 µM	> 100 µM			> 100 µM										
Oc1ccc(I)c2cccnc12	> 100 µM	23.8 µM	7.2 µM	5.76 µM	> 100 µM	20.2 µM	> 100 µM	30.1 µM		> 100 µM										
[pH]1p2[pH]p3p1p3[pH]2.c1cc[c]([Ge]([c]2ccccc2)[c]2ccccc2)cc1.c1cc[c]([Ge]([c]2ccccc2)[c]2ccccc2)cc1.c1cc[c]([Ge]([c]2ccccc2)[c]2ccccc2)cc1	25 µM	43.5 µM	17.8 µM	57.3 µM	62.3 µM	27.5 µM	33.5 µM	42.9 µM	15.8 µM	30 µM	11.9 µM	16.4 µM	4.46 µM	22.2 µM	6.95 µM	18.5 µM			21.2 µM	15.5 µM
CN(C)Cc1ccc(O)c(CN(C)C)n1	> 100 µM	> 100 µM	> 100 µM		> 100 µM	> 100 µM	> 100 µM	> 100 µM		> 100 µM								> 100 µM		
COC12OCCN(C)C1=CC(=O)C1N=NCC12 (centres undefined)	> 100 µM	> 100 µM	> 100 µM	> 100 µM	> 100 µM	> 100 µM	> 100 µM	> 100 µM		> 100 µM										
COc1cc(C(=O)/C=C/c2cccnc2Nc2ccc(Cl)cc2)cc(OC)c1OC	3.12 µM		3 µM	5.14 µM	1.84 µM	3.88 µM	3.35 µM	3.97 µM	1.41 µM	2.84 µM	1.72 µM		1.46 µM	0.568 µM	1.92 µM	1.87 µM	1.64 µM	4.4 µM	1.93 µM	1.59 µM
CCN(CC)Cc1cc(Nc2ccnc3ccc(OC)cc23)ccc1O	10.4 µM		5.61 µM	8.83 µM	15 µM	10.4 µM	8.43 µM	7.64 µM	2.75 µM	12.5 µM	3.4 µM		2.21 µM	2.62 µM	3.28 µM	3.1 µM	4.87 µM	28.8 µM	2.39 µM	1.94 µM
COc1ccc(-c2cc(-c3ccc(Cl)cc3)nc(SCCCC(=O)NO)n2)cc1OC	2.71 µM		4.05 µM	8.56 µM	> 100 µM	3.4 µM	8.28 µM	2.75 µM	1.22 µM	2.8 µM	1.2 µM		1.3 µM	0.433 µM	0.466 µM	0.537 µM	0.368 µM	2.54 µM	0.926 µM	2.48 µM
c1ccc(-c2sc(-c3ccccc3)c3c2C(c2ccccc2)c2c(-c4ccccc4)sc(-c4ccccc4)c2C3c2ccccc2)cc1 (centres undefined)	> 100 µM	> 100 µM	> 100 µM	> 100 µM	> 100 µM	> 100 µM	> 100 µM	> 100 µM		> 100 µM										

Reference: PubChem BioAssay (NCI)
